Assay results taken from patent US10632121B2, “Platelet-derived growth factor receptor mutations and compositions and methods relating thereto” (MEMORIAL SLOAN KETTERING CANCER CENTER, priority 2014, dated 2020).
“Also recorded” adds a separate entry of the source.

What was measured:
PI3Kα = PI3Kα (Homo sapiens, UniProt P42336); conditions: cited from earlier work
TS603 GBM tumor spheres = assay: Electrochemiluminescent detection of pAkt and pS6RP in GBM tumor spheres; format: cell-based, human; conditions: at the median intratumoral Cmax concentration (0.17 μM), four hours treatment
glioblastoma tumor cells = assay: Clinical trial: Ki-67 IHC tumor cell proliferation; format: in vivo, human
Experimental: The design of the trial allowed comparison of the initial glioma (Surgery 1) in these patients to the recurrent glioma which was treated with drug before surgical resection (Surgery 2). Immunohistochemical staining (IHC) was performed on the samples and pathway inhibition was measured via pS6 Ser235/6, pS6K1 Thr389, p4E-BP1 Thr37/46, and pPRAS40 Thr246 (FIG. 1E, upper panel). Cellular proliferation was measured via Ki-67 IHC. These IHC measurements were compared to one another and reported as a percentage decrease or increase of Surgery2/Surgery 1. Samples which had reduction of all four phospho-protein measurements in Surgery 2 also had the greatest relative decreases in cellular proliferation (FIG. 1E, lower panel). Samples which had no inhibition of any pharmacodynamic biomarker or inhibition of only one pharmacodynamic biomarker were most likely to see a relative increase in proliferation.
To compare the relative change in cellular proliferation in the three drug arms and a drug naïve population, a control population was formed of patients who had not been treated with any PI3K inhibitor and surgical samples available from two surgical resections and compared their relative proliferation via Ki-67 IHC (FIG. 12A). This control group was compared with the three arms of the trial. […] There was no statistically significant change in proliferation between the control group and the other arms of the trial.
To determine the Ki-67 labeling index, slides were analyzed as with the phospho-proteins, and the number of positively stained and total number of cells was determined for each image. The percentage of Ki-67 positive cells was calculated for each image, then the three images were averaged.

[1] = test system: PI3K/mTOR pathway (pAkt Ser473, pS6); assay: S5472 subcutaneous tumors, pAkt and pS6 (IHC, Meso Scale); format: in vivo, mouse
Experimental: The in vivo effects of SAR245409 treatment were examined on the S5472 PDGF-β driven line. One million S5472 cells were injected subcutaneously into SCID mice flanks. After measurable tumor formation, mice were randomized into vehicle, 60 mg/kg/day, or 120 mg/kg/every other day treatment groups, ten mice per group. […] Tumors were removed from one hour after the last dose of treatment for analysis. Sections were IHC stained for biomarkers of pathway inhibition pAkt Ser473 and pS6 Ser235/6. […] Portions of the tumor were lysed and pAkt Ser473 and pS6 Ser240/4 were measured using an electrochemiluminescent assay on the Meso Scale system (FIG. 19B).
pS6RP Ser240/4 (K150DFD-1) and pAkt Ser473/total Akt (K15100D-1) assays were purchased from MescoScale Discovery and performed as described by the kit on fresh cell lysates, or on lysed frozen tumor sections. Assays were read on the SECTOR™ SI2400 imager.

[2] = test system: S5472 GBM cells (PDGFB driven); assay: Cell proliferation and viability (Vi-Cell, trypan blue), S5472; format: cell-based, mouse
G228V-PDGFRA = assay: Akt activation by PDGFRA expressed in Pdgfra/Pdgfrb double knockout MEFs (Western blot); format: cell-based, mouse; conditions: SAR409 1 μM, one hour pretreatment
PI3Kδ = PI3Kδ (Homo sapiens, UniProt O00329); conditions: cited from earlier work
[3] = test system: HER2-amplified BT474 breast cancer cells; assay: Cell viability, BT474; format: cell-based, human; conditions: BT474, five day treatment
[4] = test system: TS543 GBM cells (PDGFRA amplified); assay: Cell proliferation and viability (Vi-Cell, trypan blue), TS543; format: cell-based, human; conditions: TS543, five day treatment
Experimental: For growth assays performed on non-adherent cell lines (primary human neurosphere lines and S5472 cells) cells were single cell disassociated with Accumax, then counted using the Beckman Coulter Vi-Cell XR Cell Viability Analyzer. Cells were plated in a 6 cm dish in triplicate for each vehicle or drug sample. After five days in culture, each plate was individually spun down, Accumax disassociated, and counted with the Vi-Cell. The Vi-Cell uses trypan blue-exclusion as a measure for viable cells, trypan blue positive cells were used to calculate the percentage of cell death in each sample. The average and standard error of the mean was graphed using GraphPad Prism 6.
(§1) SAR408 and SAR409 were provided by Sanofi. […] Antibodies for western blots were from Cell Signaling Technology with the following exceptions: actin (Sigma), total PDGFRA (Santa Cruz), and V5 epitope (Invitrogen). Western Blots were performed after four hours of drug treatment unless indicated otherwise. Electroluminescence was used to quantify phosphorylation of Akt and S6 ribosomal protein (FIG. 1B) (Meso Scale Discovery cat # K15100D-1 and cat # K150DGD-1). Cell Proliferation and Viability Assays were performed using a Beckman Coulter Vi-Cell XR Cell Viability Analyzer after five days of drug treatment unless indicated otherwise.

TS543 GBM cells = assay: Western blot of pathway signaling, TS543; format: cell-based, human; conditions: TS543, four hour treatment
Experimental: Cell lysates for western blots were harvested in cell lysis buffer (Cell Signaling 9803) supplemented with a protease inhibitor cocktail (Calbiochem cocktail II 524625) and phosphatase inhibitor cocktail (Calbiochem cocktail III 524627). Lysates were sonicated, centrifuged, then quantified (Bio-Rad DC Protein Assay 500-0113, 500-0114, and 500-0115). Samples were normalized to one another, then a reducing loading buffer was added. Samples were run on SDS-PAGE gels and semi-dry transferred to nitrocellulose membranes.
as §1

[5] = test system: H1703 human non-small cell lung cancer cells (PDGFRA amplified); assay: Cell proliferation and viability (Vi-Cell, trypan blue), H1703; format: cell-based; conditions: H1703, five day treatment
Experimental: Growth assays performed on adherent cell lines were trypsanized, counted, and plated into 6 cm dishes. The next day media was removed, and replaced with reduced serum media (5% FBS) with drug or vehicle in triplicate for each concentration. After five days in culture, cells were analyzed in the same manner as non-adherent lines.
as §1

mTOR = mTOR (Homo sapiens, UniProt P42345); conditions: cited from earlier work
[6] = test system: PI3K/mTOR pathway (pS6 Ser235/6); assay: RCAS/tv-a PDGF-B-induced orthotopic glioma model, pS6 IHC; format: in vivo, mouse; conditions: 60 mg/kg/day, one hour after last dose

PI3Kα, sequence (P42336 whole entry): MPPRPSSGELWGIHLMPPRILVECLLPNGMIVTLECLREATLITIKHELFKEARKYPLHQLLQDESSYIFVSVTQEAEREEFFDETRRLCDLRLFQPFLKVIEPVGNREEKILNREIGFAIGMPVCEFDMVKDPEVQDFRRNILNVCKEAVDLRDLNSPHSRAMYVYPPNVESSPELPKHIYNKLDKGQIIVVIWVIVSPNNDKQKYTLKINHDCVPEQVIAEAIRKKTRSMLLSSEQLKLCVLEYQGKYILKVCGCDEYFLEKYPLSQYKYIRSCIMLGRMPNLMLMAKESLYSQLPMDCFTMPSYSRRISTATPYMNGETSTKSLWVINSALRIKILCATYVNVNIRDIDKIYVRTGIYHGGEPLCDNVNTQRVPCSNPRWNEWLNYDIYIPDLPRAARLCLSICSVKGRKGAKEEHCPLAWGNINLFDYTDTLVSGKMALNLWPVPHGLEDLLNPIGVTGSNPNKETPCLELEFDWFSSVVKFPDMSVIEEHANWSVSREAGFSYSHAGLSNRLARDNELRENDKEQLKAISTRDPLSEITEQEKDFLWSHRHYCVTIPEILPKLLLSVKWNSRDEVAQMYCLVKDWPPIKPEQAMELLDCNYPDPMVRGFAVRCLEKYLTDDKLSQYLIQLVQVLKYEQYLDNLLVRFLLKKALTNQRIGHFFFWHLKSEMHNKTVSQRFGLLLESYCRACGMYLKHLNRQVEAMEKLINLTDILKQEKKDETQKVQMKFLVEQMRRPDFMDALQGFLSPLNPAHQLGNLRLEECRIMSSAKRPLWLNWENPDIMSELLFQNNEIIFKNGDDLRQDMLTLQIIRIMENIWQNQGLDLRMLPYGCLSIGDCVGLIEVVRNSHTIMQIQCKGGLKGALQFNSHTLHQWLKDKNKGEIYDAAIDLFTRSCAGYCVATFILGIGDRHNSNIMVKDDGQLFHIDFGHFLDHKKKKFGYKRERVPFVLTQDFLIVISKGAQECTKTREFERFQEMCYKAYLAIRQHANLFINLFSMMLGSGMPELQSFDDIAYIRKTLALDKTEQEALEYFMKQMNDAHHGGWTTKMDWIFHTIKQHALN
PI3Kα, sequence (P27986 whole entry partner): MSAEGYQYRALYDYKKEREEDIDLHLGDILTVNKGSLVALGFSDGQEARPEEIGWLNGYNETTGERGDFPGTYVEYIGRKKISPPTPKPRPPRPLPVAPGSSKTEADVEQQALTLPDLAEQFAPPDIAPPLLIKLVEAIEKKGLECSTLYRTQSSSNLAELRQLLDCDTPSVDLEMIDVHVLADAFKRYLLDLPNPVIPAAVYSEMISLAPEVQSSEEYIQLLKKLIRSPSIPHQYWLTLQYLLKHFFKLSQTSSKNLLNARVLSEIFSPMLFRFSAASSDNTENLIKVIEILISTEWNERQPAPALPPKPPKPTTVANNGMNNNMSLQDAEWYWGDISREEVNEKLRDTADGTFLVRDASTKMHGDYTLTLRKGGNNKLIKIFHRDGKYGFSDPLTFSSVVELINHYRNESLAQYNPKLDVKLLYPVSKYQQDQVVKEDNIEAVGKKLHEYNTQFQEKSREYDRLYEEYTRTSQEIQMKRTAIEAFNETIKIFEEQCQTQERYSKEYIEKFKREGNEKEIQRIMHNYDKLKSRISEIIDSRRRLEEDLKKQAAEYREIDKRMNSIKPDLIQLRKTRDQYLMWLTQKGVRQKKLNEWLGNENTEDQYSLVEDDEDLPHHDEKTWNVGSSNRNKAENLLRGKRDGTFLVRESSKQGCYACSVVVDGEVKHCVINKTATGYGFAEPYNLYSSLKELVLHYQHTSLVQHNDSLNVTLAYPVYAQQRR
PI3Kδ, sequence (O00329 whole entry): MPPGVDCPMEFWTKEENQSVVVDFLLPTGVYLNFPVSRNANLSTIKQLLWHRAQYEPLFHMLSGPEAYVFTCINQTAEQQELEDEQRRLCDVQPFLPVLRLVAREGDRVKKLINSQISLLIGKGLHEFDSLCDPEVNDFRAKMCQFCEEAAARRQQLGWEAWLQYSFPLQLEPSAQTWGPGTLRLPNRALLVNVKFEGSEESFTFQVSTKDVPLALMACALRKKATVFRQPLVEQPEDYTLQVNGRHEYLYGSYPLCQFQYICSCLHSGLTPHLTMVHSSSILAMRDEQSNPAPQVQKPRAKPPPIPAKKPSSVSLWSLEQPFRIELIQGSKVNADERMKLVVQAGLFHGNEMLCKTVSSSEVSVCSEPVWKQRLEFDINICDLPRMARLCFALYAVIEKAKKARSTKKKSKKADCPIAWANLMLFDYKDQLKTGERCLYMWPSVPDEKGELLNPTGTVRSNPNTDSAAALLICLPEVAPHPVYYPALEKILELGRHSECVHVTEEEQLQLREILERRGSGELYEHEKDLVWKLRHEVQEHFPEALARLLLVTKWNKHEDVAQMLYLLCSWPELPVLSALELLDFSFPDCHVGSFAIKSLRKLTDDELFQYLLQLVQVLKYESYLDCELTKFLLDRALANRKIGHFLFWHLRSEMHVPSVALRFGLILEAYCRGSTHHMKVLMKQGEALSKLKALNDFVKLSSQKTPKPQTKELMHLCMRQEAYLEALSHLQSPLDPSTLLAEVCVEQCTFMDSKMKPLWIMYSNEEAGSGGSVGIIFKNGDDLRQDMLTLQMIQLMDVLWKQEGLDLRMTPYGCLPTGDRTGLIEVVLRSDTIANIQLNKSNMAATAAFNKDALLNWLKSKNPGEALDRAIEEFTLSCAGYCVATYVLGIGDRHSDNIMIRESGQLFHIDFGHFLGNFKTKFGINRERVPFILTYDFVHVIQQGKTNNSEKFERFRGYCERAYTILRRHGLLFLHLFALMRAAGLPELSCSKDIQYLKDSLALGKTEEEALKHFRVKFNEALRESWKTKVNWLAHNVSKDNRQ
PI3Kδ, sequence (P27986 whole entry partner): as the sequence (P27986 whole entry partner) above

CCn1c(=O)c(-c2cc[nH]n2)cc2c(C)nc(N)nc21 [SAR409, voxtalisib]
IC50 (PI3Kα): 101 nM
reduction of phosphorylation of Akt and S6 Ribosomal Protein (TS603 GBM tumor spheres): about 50%
change in proliferation (Ki-67) compared to untreated control population (glioblastoma tumor cells; 50 mg/BID SAR245409 arm): not significantly different
change in proliferation (Ki-67) compared to untreated control population (glioblastoma tumor cells; 90 mg/QD SAR245409 arm, p=0.009): statically significant decrease; also recorded: statistically significantly reduced
cellular proliferation in tumor, Surgery 2 vs Surgery 1 (glioblastoma tumor cells; patients treated 10-28 days before surgery): Reduced Cellular Proliferation
pAkt Ser473 and pS6 Ser240/4 in tumor lysates (electrochemiluminescent assay) ([1]; 60 mg/kg/day arm, p=0.0001 vs vehicle): significantly down
pAkt Ser473 and pS6 Ser235/6 in tumor sections (IHC) ([1]; one hour after last dose, treated vs vehicle): Notable inhibition of both markers
ligand-independent growth and survival of D842V-S5472 cells ([2]; 1 μM SAR245409 together with doxycycline, five days): ablates ligand-independent growth and survival
cell death (% Trypan blue positive cells) ([2]; S5472, five day treatment): induced cell death
proliferation / growth inhibition ([2]; S5472, five day treatment): potent growth inhibition
cell death (% Trypan blue positive cells) ([2]; S5472, five day treatment, listed as SAR245409): induction of cell death
Akt activation by G228V-PDGFRA (Western blot) (G228V-PDGFRA): could be inhibited; also recorded: blocks ligand induced AKT activation
IC50 (PI3Kδ): 91 nM
cell death (% Trypan blue positive cells) [3]: induced cell death
cell death (% Trypan blue positive cells) ([3]; listed as SAR245409): robust induction of cell death
cell death (% Trypan blue positive cells) [4]: induced cell death
proliferation / growth inhibition [4]: more sensitive to growth inhibition
cell death (% Trypan blue positive cells) ([4]; listed as SAR245409): induction of cell death
proliferation / growth inhibition ([4]; listed as SAR245409): potent growth inhibition
PI3K/mTOR pathway inhibition (Western blot) (TS543 GBM cells): inhibited the PI3K/mTOR pathway almost completely
cell death (% Trypan blue positive cells) [5]: induction of cell death
proliferation / growth inhibition [5]: potent growth inhibition
IC50 (mTOR): 190 nM
PI3K/mTOR pathway biomarker (pS6 Ser235/6 IHC) in tumors [6]: reduced staining
PI3K/mTOR pathway biomarker (pS6 Ser235/6 IHC) in tumors ([6]; listed as SAR245409): reduced activation
